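Protocol summary: plate cells (96-well), add compound at 5 concentrations, incubate 48 h, interpolate endpoints linearly. GI50: concentration for 50% inhibition of growth.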 The source made the active and inactive calls. Cut-off read from the data, not from the text of the source: active = GI50 up to about 1.1 µM and inactive = higher.
Experiments:
Test in all cases: DTP human tumour cell line panel, 48 h
HT-29 = tested on: HT-29
XF498 = tested on: XF498
SK-MEL-28 = tested on: SK-MEL-28
SK-MEL-5 = tested on: SK-MEL-5
RXF 393 = tested on: RXF 393
NCI-H23 = tested on: NCI-H23
DMS-114 = tested on: DMS-114
NCI-H226 = tested on: NCI-H226
CCRF-CEM = tested on: CCRF-CEM
HOP-62 = tested on: HOP-62
Malme-3M = tested on: Malme-3M
HL-60 = tested on: HL-60
KM-20L2 = tested on: KM-20L2
SNB-19 = tested on: SNB-19
SNB-75 = tested on: SNB-75
OVCAR-3 = tested on: OVCAR-3
UACC-257 = tested on: UACC-257
SF-539 = tested on: SF-539
SF-268 = tested on: SF-268
A498 = tested on: A498
MOLT-4 = tested on: MOLT-4
SNB-78 = tested on: SNB-78
EKVX = tested on: EKVX
COLO 205 = tested on: COLO 205
OVCAR-8 = tested on: OVCAR-8
U-251 = tested on: U-251
IGROV-1 = tested on: IGROV-1
OVCAR-5 = tested on: OVCAR-5
SK-OV-3 = tested on: SK-OV-3
KM12 = tested on: KM12
NCI/ADR-RES = tested on: NCI/ADR-RES
SW-620 = tested on: SW-620
M19-MEL = tested on: M19-MEL
HCC 2998 = tested on: HCC 2998
UO-31 = tested on: UO-31
UACC-62 = tested on: UACC-62
MCF7 = tested on: MCF7
SN12C = tested on: SN12C
A549 = tested on: A549
SK-MEL-2 = tested on: SK-MEL-2
NCI-H460 = tested on: NCI-H460
HCT-116 = tested on: HCT-116
NCI-H522 = tested on: NCI-H522
K562 = tested on: K562
OVCAR-4 = tested on: OVCAR-4
DLD-1 = tested on: DLD-1
HOP-18 = tested on: HOP-18
DMS-273 = tested on: DMS-273
SF-295 = tested on: SF-295
HCT-15 = tested on: HCT-15
LOX IMVI = tested on: LOX IMVI
HOP-92 = tested on: HOP-92
RPMI-8226 = tested on: RPMI-8226
MDA-MB-231 = tested on: MDA-MB-231
T47D = tested on: T47D
ACHN = tested on: ACHN
PC-3 = tested on: PC-3
TK-10 = tested on: TK-10
BT-549 = tested on: BT-549
Hs-578T = tested on: Hs-578T
M14 = tested on: M14
MDA-MB-435 = tested on: MDA-MB-435
CAKI-1 = tested on: CAKI-1
SR = tested on: SR
786-0 = tested on: 786-0
MDA-N = tested on: MDA-N
DU-145 = tested on: DU-145

For `Nc1cc2c(cc1[N+](=O)[O-])[nH]c1c(-c3ccccc3)nccc12`, the GI50 (HT-29) was 14500 nM (inactive), the GI50 (XF498) was 40000 nM (inactive) and the GI50 (SK-MEL-28) was 27100 nM (inactive). For the same molecule, the GI50 (SK-MEL-5) was 13500 nM (inactive), the GI50 (RXF 393) was 19900 nM (inactive) and the GI50 (NCI-H23) was 18700 nM (inactive). For the same molecule, the GI50 (DMS-114) was 12700 nM (inactive), the GI50 (NCI-H226) was 17000 nM (inactive) and the GI50 (CCRF-CEM) was 7710 nM (inactive). For the same molecule, the GI50 (HOP-62) was 15200 nM (inactive), the GI50 (Malme-3M) was 17400 nM (inactive) and the GI50 (HL-60) was 11800 nM (inactive). The GI50 (KM-20L2) was 23600 nM (inactive), the GI50 (SNB-19) was 23800 nM (inactive) and the GI50 (SNB-75) was 19200 nM (inactive). The GI50 (OVCAR-3) was 19100 nM (inactive), the GI50 (UACC-257) was 18000 nM (inactive) and the GI50 (SF-539) was 24400 nM (inactive). The GI50 (SF-268) was 25200 nM (inactive), the GI50 (A498) was 30500 nM (inactive) and the GI50 (MOLT-4) was 4430 nM (inactive). For the same molecule, the GI50 (SNB-78) was 11200 nM (inactive), the GI50 (EKVX) was 21700 nM (inactive) and the GI50 (COLO 205) was 20700 nM (inactive). The GI50 (OVCAR-8) was 30800 nM (inactive), the GI50 (U-251) was 18800 nM (inactive) and the GI50 (IGROV-1) was 8650 nM (inactive). For the same molecule, the GI50 (OVCAR-5) was 27100 nM (inactive), the GI50 (SK-OV-3) was 10900 nM (inactive) and the GI50 (KM12) was 15800 nM (inactive). The GI50 (NCI/ADR-RES) was 14100 nM (inactive), the GI50 (SW-620) was 25900 nM (inactive) and the GI50 (M19-MEL) was 17700 nM (inactive). For the same molecule, the GI50 (HCC 2998) was 13200 nM (inactive), the GI50 (UO-31) was 5770 nM (inactive) and the GI50 (UACC-62) was 13600 nM (inactive). For the same molecule, the GI50 (MCF7) was 26000 nM (inactive), the GI50 (SN12C) was 22300 nM (inactive) and the GI50 (A549) was 17400 nM (inactive). For the same molecule, the GI50 (SK-MEL-2) was 20200 nM (inactive), the GI50 (NCI-H460) was 15800 nM (inactive) and the GI50 (HCT-116) was 15300 nM (inactive). For the same molecule, the GI50 (NCI-H522) was 12000 nM (inactive), the GI50 (K562) was 7570 nM (inactive) and the GI50 (OVCAR-4) was 12800 nM (inactive). For the same molecule, the GI50 (DLD-1) was 8200 nM (inactive), the GI50 (HOP-18) was 8410 nM (inactive) and the GI50 (DMS-273) was 18100 nM (inactive). The GI50 (SF-295) was 21700 nM (inactive), the GI50 (HCT-15) was 12000 nM and the GI50 (LOX IMVI) was 13600 nM (inactive). For the same molecule, the GI50 (HOP-92) was 12000 nM (inactive) and the GI50 (RPMI-8226) was 8240 nM (inactive).

With `COC1/C=C/C(C)C(C(C)C(OC)C(C)CCC(=O)C(C)C(C/C=C/N(C)C=O)OC)OC(=O)/C=C/C=C(\C)CC(OC)C(OC)C2=CC(=O)O[C@@H](C(C)C(OC)CC(OC)/C=C/C(C)C(O)C1)[C@H]2O` (some centres not stated) the GI50 (HT-29) was 61.5 nM (active), the GI50 (SK-MEL-28) was 192 nM (active) and the GI50 (MDA-MB-231) was 77.3 nM (active). For the same molecule, the GI50 (SK-MEL-5) was 90.4 nM (active), the GI50 (RXF 393) was 121 nM (active) and the GI50 (NCI-H23) was 145 nM (active). For the same molecule, the GI50 (T47D) was 208 nM (active), the GI50 (ACHN) was 91.4 nM (active) and the GI50 (NCI-H226) was 60 nM (active). The GI50 (CCRF-CEM) was 39 nM (active), the GI50 (PC-3) was 85.5 nM (active) and the GI50 (HOP-62) was 70.5 nM (active). The GI50 (Malme-3M) was 148 nM (active), the GI50 (TK-10) was 74.5 nM (active) and the GI50 (HL-60) was 96.4 nM (active). The GI50 (BT-549) was 117 nM (active), the GI50 (SNB-19) was 171 nM (active) and the GI50 (SNB-75) was 26.8 nM (active). For the same molecule, the GI50 (OVCAR-3) was 68.1 nM (active), the GI50 (UACC-257) was 130 nM (active) and the GI50 (SF-539) was 128 nM (active). For the same molecule, the GI50 (SF-268) was 129 nM (active), the GI50 (A498) was 72.3 nM (active) and the GI50 (MOLT-4) was 105 nM (active). For the same molecule, the GI50 (EKVX) was 154 nM (active), the GI50 (COLO 205) was 72.1 nM (active) and the GI50 (OVCAR-8) was 220 nM (active). For the same molecule, the GI50 (U-251) was 111 nM (active), the GI50 (IGROV-1) was 119 nM (active) and the GI50 (OVCAR-5) was 163 nM (active). The GI50 (Hs-578T) was 33.6 nM (active), the GI50 (SK-OV-3) was 122 nM (active) and the GI50 (KM12) was 164 nM (active). For the same molecule, the GI50 (NCI/ADR-RES) was 226 nM (active), the GI50 (SW-620) was 120 nM (active) and the GI50 (M14) was 140 nM (active). For the same molecule, the GI50 (HCC 2998) was 71.6 nM (active), the GI50 (UO-31) was 137 nM (active) and the GI50 (UACC-62) was 137 nM (active). For the same molecule, the GI50 (MCF7) was 208 nM (active), the GI50 (SN12C) was 126 nM (active) and the GI50 (A549) was 150 nM (active). For the same molecule, the GI50 (SK-MEL-2) was 27.6 nM (active), the GI50 (NCI-H460) was 75.9 nM (active) and the GI50 (MDA-MB-435) was 249 nM (active). For the same molecule, the GI50 (HCT-116) was < 22.2 nM (active), the GI50 (NCI-H522) was 119 nM (active) and the GI50 (K562) was 37.9 nM (active). For the same molecule, the GI50 (CAKI-1) was 50.8 nM (active), the GI50 (SR) was 80.9 nM (active) and the GI50 (OVCAR-4) was 121 nM (active). The GI50 (786-0) was 147 nM (active), the GI50 (MDA-N) was 208 nM (active) and the GI50 (SF-295) was 115 nM (active). The GI50 (DU-145) was 373 nM (active), the GI50 (HCT-15) was 47.9 nM and the GI50 (LOX IMVI) was 14.5 nM (active). For the same molecule, the GI50 (HOP-92) was 28.4 nM (active) and the GI50 (RPMI-8226) was 35.6 nM (active).

From ChEMBL document CHEMBL1201862, “PubChem BioAssay data set” (2004)
